The values below come from patent US4683291A, “Platelet binding inhibitors” (Scripps Clinic and Research Foundation, priority 1985, dated 1987).

Where two headings read alike, the source gives them in different places. Non-standard residues stand in square brackets, D forms with d. Residues, ends and D or L forms follow the SMILES beside them. No end group written: not given here.

The target of assay [1] is T1, platelet receptor, the GPIIb/IIIa complex (Homo sapiens, UniProt P05106+P08514).
T1 construct: Platelets were isolated from normal platelet-rich plasma and washed by the albumin density gradient technique; endogenous in cells; host or cells: washed platelets from normal platelet-rich plasma, thrombin-stimulated
The experiment in a line: Inhibition of 125I-fibrinogen binding to thrombin-stimulated washed platelets. How it is done:
Peptides were stored in the lyophilized state and dissolved in distilled water immediately before use. One-tenth volume of 10x modified Tyrode buffer was added before mixing with the platelet suspension. Platelets were isolated from normal platelet-rich plasma and washed by the albumin density gradient technique. Fibrinogen was purified following precipitation with glycine or polyethylene glycol 1000, and radiolabeled with ^125 I using Iodogen (Pierce). […] In each experimental mixture, platelets in modified Tyrode buffer were stimulated with human alpha-thrombin at 22°-25° C. for 10 minutes (3.125×10^11 platelets/L and 0.25 NIHU/ml of thrombin). Hirudin (Sigma) was then added at a 25-fold excess (V/V) for 5 minutes before the addition of ^125 I-fibrinogen and the peptide was then tested. After these additions, the final platelet count in the mixture was 1×10^11 /L, and fibrinogen was 0.176 micromolar. Separation of bound from free ligand was achieved by centrifuging 50 microliters of the mixture through 200 microliters of 20% sucrose at 12,000 g for 4 minutes. The platelet pellet was separated from the rest of the mixture, and the platelet-bound radioactivity was then determined. Non-specific binding was measured in mixtures containing a 75-fold excess of unlabeled fibrinogen. […] Each peptide was tested at six different concentrations, and the IC50 was derived from a plot of residual fibrinogen binding versus log of peptide concentration.

In assay [2] the target is T1, platelet receptor, the GPIIb/IIIa complex. As to conditions: increasing fibrinogen concentrations; earlier findings; cited from earlier work.
The mark [3] stands for this setting: read-out: Typical IC50 (micromolar) IC50.

A word on the IC50: it is the concentration that gives 50% inhibition.

For “KRKRKRKRRGDV [Lys--Arg--Lys--Arg--Lys--Arg--Lys--Arg--Arg--Gly--Asp--Val]”, the IC50 in assay [1] (fibrinogen-platelet binding, read-out: IC50) came out at 0.4 µM.
As to HHLGGAKQAGDV [reference compound], the IC50 in assay [1] (published peptides, read-out: IC50) fell in the range of 48 to 83 µM.
Regarding “HHLRKRKQRGDV [His--His--Leu--Arg--Lys--Arg--Lys--Gln--Arg--Gly--Asp--Val]”, the IC50 in assay [1] (setting [3]) worked out at 4.4 µM.
Consider “HHLGRRKQRGDV [His--His--Leu--Gly--Arg--Arg--Lys--Gln--Arg--Gly--Asp--Val]”, for which, in assay [1] (setting [3]), the IC50 turned out to be 5.4 µM.
As to “HHLGGRKQRGDV [His--His--Leu--Gly--Gly--Arg--Lys--Gln--Arg--Gly--Asp--Val]”, in assay [1] (setting [3]), the IC50 was determined as 6.3 µM.
Take “HHLRGKKQRGDV [His--His--Leu--Arg--Gly--Lys--Lys--Gln--Arg--Gly--Asp--Val]”: in assay [1] (setting [3]), the IC50 was 11.2 µM.
On to “HHKRKRKQRGDV [His--His--Lys--Arg--Lys--Arg--Lys--Gln--Arg--Gly--Asp--Val]”, for which the IC50 in assay [1] (setting [3]) came to 3.3 µM.
Same read-out and setting: with “HHLGGKKQRGDV [His--His--Leu--Gly--Gly--Lys--Lys--Gln--Arg--Gly--Asp--Val]” the figure was 13.2 µM.
For “HHKKKKKKRGDV [His--His--Lys--Lys--Lys--Lys--Lys--Lys--Arg--Gly--Asp--Val]”, the IC50 in assay [1] (setting [3]) stood at 1.6 µM.
Still for that read-out and setting: for “HHRRRRRRRGDV [His--His--Arg--Arg--Arg--Arg--Arg--Arg--Arg--Gly--Asp--Val]” the value was 1.3 µM; for “HHLRGRKQRGDV [His--His--Leu--Arg-- Gly--Arg--Lys--Gln--Arg--Gly--Asp--Val]”, 6.2 µM.
Consider “Gly-Pro-Arg-Pro (GPRP; printed: Gly-Pro-Arg-Pro)”, for which the “inhibitory effect on increasing the fibrinogen concentration” value in assay [2] is “increase with increasing fibrinogen concentrations”.
On to “HHLGGAKQRGDV [His--His--Leu--Gly--Gly--Ala--Lys--Gln--Arg--Gly--Asp--Val]”, for which, in assay [1] (setting [3]), the IC50 was found to be 14.5 µM.
For the molecule `CC(C)[C@H](NC(=O)[C@H](CC(=O)O)NC(=O)CNC(=O)[C@H](CCCNC(=N)N)NC(=O)[C@H](CCC(N)=O)NC(=O)[C@H](CCCCN)NC(=O)[C@H](CCCNC(=N)N)NC(=O)CNC(=O)CNC(=O)[C@@H](C)NC(=O)[C@H](Cc1c[nH]cn1)NC(=O)[C@@H](N)Cc1c[nH]cn1)C(=O)O` [His--His--D-Ala--Gly--Gly--Arg--Lys--Gln--Arg--Gly--Asp--Val] (H-HH[dA]GGRKQRGDV-OH), in assay [1] (setting [3]), the IC50 turned out to be 2.8 µM.
Take “HHKRKRKRRGDS [His--His--Lys--Arg--Lys--Arg--Lys--Arg--Arg--Gly--Asp--Ser]”: in assay [1] (setting [3]), the IC50 came to 3.1 µM.
Turning to “HHKRKRKQRGDS [His--His--Lys--Arg--Lys--Arg--Lys--Gln--Arg--Gly--Asp--Ser]”, in assay [1] (setting [3]), the IC50 is 6.2 µM.
Still for that read-out and setting: with `CC(C)[C@H](NC(=O)[C@H](CC(=O)O)NC(=O)CNC(=O)[C@H](CCCNC(=N)N)NC(=O)[C@H](CCC(N)=O)NC(=O)[C@H](CCCCN)NC(=O)[C@H](CCCNC(=N)N)NC(=O)[C@H](CCCCN)NC(=O)[C@H](CCCNC(=N)N)NC(=O)[C@@H](C)NC(=O)[C@H](Cc1c[nH]cn1)NC(=O)[C@@H](N)Cc1c[nH]cn1)C(=O)O` [His--His--D-Ala--Arg--Lys--Arg--Lys--Gln--Arg--Gly--Asp--Val] (H-HH[dA]RKRKQRGDV-OH) the figure was 2.2 µM; with “KKKKKKKKRGDV [Lys--Lys--Lys--Lys--Lys--Lys--Lys--Lys--Arg--Gly--Asp--Val]”, 4.1 µM.
Still for that read-out and setting: with “RRRRRRRRRGDV [Arg--Arg--Arg--Arg--Arg--Arg--Arg--Arg--Arg--Gly--Asp--Val]” the figure was 0.2 µM.
